Like-named read-outs stand apart in the source and are kept apart here.
Tests used:
[1] = format: physicochemical; details: for Stability in Powder Concentrate (content by LCMSMS): stored at room temperature (21-25° C.)
Description: At each time period, 0.05 g of powder was dissolved in 10 ml-15 of ethanol, diluted to fall within the analytical range, and injected into the LCMSMS for analysis.

[2] = Stability of cannabinoid and Vitamin E components of Beverage 2 (AB Red) stored at 8° C. and 21-25° C., LCMSMS over 570 days; details: for Chemical stability over the entire period (result in words): AB Red
Description: The LCMSMS was calibrated for 0-50 ng/ml cannabinoids with the same resin material used in the preparation of the concentrates. At each time period, 100 μml of beverage was diluted with 10 ml of methanol and injected into the LCMSMS for analysis.

CCCCCc1cc(O)c2c(c1)OC(C)(C)[C@@H]1CCC(C)=C[C@@H]21 [D9 THC, delta-9-tetrahydrocannabinol, reference compound]
Chemical stability over the entire period (result in words) ([1]; powder concentrate, room temperature (21-25° C.), 570 days): no significant degradation | Stability in Powder Concentrate (content by LCMSMS) ([1]; day 0): 2.55 mg/g powder | Stability in Powder Concentrate (content by LCMSMS) ([1]; day 1): 2.55 mg/g powder | Stability in Powder Concentrate (content by LCMSMS) ([1]; day 2): 2.46 mg/g powder | Stability in Powder Concentrate (content by LCMSMS) ([1]; day 3): 2.63 mg/g powder | Stability in Powder Concentrate (content by LCMSMS) ([1]; day 5): 2.66 mg/g powder | Stability in Powder Concentrate (content by LCMSMS) ([1]; day 8): 2.49 mg/g powder | Stability in Powder Concentrate (content by LCMSMS) ([1]; day 9): 2.49 mg/g powder | Stability in Powder Concentrate (content by LCMSMS) ([1]; day 10): 2.60 mg/g powder | Stability in Powder Concentrate (content by LCMSMS) ([1]; day 11): 2.58 mg/g powder | Stability in Powder Concentrate (content by LCMSMS) ([1]; day 12): 2.65 mg/g powder | Stability in Powder Concentrate (content by LCMSMS) ([1]; day 15): 2.49 mg/g powder | Stability in Powder Concentrate (content by LCMSMS) ([1]; day 16): 2.54 mg/g powder | Stability in Powder Concentrate (content by LCMSMS) ([1]; day 17): 2.54 mg/g powder | Stability in Powder Concentrate (content by LCMSMS) ([1]; day 18): 2.55 mg/g powder | Stability in Powder Concentrate (content by LCMSMS) ([1]; day 19): 2.51 mg/g powder | Stability in Powder Concentrate (content by LCMSMS) ([1]; day 22): 2.46 mg/g powder | Stability in Powder Concentrate (content by LCMSMS) ([1]; day 23): 2.65 mg/g powder | Stability in Powder Concentrate (content by LCMSMS) ([1]; day 24): 2.60 mg/g powder | Stability in Powder Concentrate (content by LCMSMS) ([1]; day 25): 2.55 mg/g powder | Stability in Powder Concentrate (content by LCMSMS) ([1]; day 26): 2.52 mg/g powder | Stability in Powder Concentrate (content by LCMSMS) ([1]; day 29): 2.47 mg/g powder | Stability in Powder Concentrate (content by LCMSMS) ([1]; day 30): 2.66 mg/g powder | Stability in Powder Concentrate (content by LCMSMS) ([1]; day 60): 2.66 mg/g powder | Stability in Powder Concentrate (content by LCMSMS) ([1]; day 90): 2.49 mg/g powder | Stability in Powder Concentrate (content by LCMSMS) ([1]; day 120): 2.66 mg/g powder | Stability in Powder Concentrate (content by LCMSMS) ([1]; day 150): 2.61 mg/g powder | Stability in Powder Concentrate (content by LCMSMS) ([1]; day 180): 2.59 mg/g powder | Stability in Powder Concentrate (content by LCMSMS) ([1]; day 210): 2.54 mg/g powder | Stability in Powder Concentrate (content by LCMSMS) ([1]; day 240): 2.53 mg/g powder | Stability in Powder Concentrate (content by LCMSMS) ([1]; day 270): 2.47 mg/g powder | Stability in Powder Concentrate (content by LCMSMS) ([1]; day 300): 2.57 mg/g powder | Stability in Powder Concentrate (content by LCMSMS) ([1]; day 330): 2.49 mg/g powder | Stability in Powder Concentrate (content by LCMSMS) ([1]; day 360): 2.58 mg/g powder | Stability in Powder Concentrate (content by LCMSMS) ([1]; day 390): 2.48 mg/g powder | Stability in Powder Concentrate (content by LCMSMS) ([1]; day 420): 2.53 mg/g powder | Stability in Powder Concentrate (content by LCMSMS) ([1]; day 450): 2.61 mg/g powder | Stability in Powder Concentrate (content by LCMSMS) ([1]; day 480): 2.65 mg/g powder | Stability in Powder Concentrate (content by LCMSMS) ([1]; day 510): 2.64 mg/g powder | Stability in Powder Concentrate (content by LCMSMS) ([1]; day 540): 2.47 mg/g powder | Stability in Powder Concentrate (content by LCMSMS) ([1]; day 570): 2.64 mg/g powder | Stability of Cannabinoids in AB Red ([2]; 8° C., 0 days): 12.9 µg/mL | Stability of Cannabinoids in AB Red ([2]; 8° C., 1 days): 13.0 µg/mL | Stability of Cannabinoids in AB Red ([2]; 8° C., 2 days): 13.0 µg/mL | Stability of Cannabinoids in AB Red ([2]; 8° C., 3 days): 12.7 µg/mL | Stability of Cannabinoids in AB Red ([2]; 8° C., 5 days): 13.0 µg/mL | Stability of Cannabinoids in AB Red ([2]; 8° C., 8 days): 12.6 µg/mL | Stability of Cannabinoids in AB Red ([2]; 8° C., 9 days): 12.7 µg/mL | Stability of Cannabinoids in AB Red ([2]; 8° C., 10 days): 12.8 µg/mL | Stability of Cannabinoids in AB Red ([2]; 8° C., 11 days): 12.8 µg/mL | Stability of Cannabinoids in AB Red ([2]; 8° C., 12 days): 12.9 µg/mL | Stability of Cannabinoids in AB Red ([2]; 8° C., 15 days): 12.9 µg/mL | Stability of Cannabinoids in AB Red ([2]; 8° C., 16 days): 12.7 µg/mL | Stability of Cannabinoids in AB Red ([2]; 8° C., 17 days): 12.6 µg/mL | Stability of Cannabinoids in AB Red ([2]; 8° C., 18 days): 12.8 µg/mL | Stability of Cannabinoids in AB Red ([2]; 8° C., 19 days): 12.7 µg/mL | Stability of Cannabinoids in AB Red ([2]; 8° C., 22 days): 12.7 µg/mL | Stability of Cannabinoids in AB Red ([2]; 8° C., 23 days): 12.9 µg/mL | Stability of Cannabinoids in AB Red ([2]; 8° C., 24 days): 12.9 µg/mL | Stability of Cannabinoids in AB Red ([2]; 8° C., 25 days): 12.9 µg/mL | Stability of Cannabinoids in AB Red ([2]; 8° C., 26 days): 12.7 µg/mL | Stability of Cannabinoids in AB Red ([2]; 8° C., 29 days): 12.7 µg/mL | Stability of Cannabinoids in AB Red ([2]; 8° C., 30 days): 12.9 µg/mL | Stability of Cannabinoids in AB Red ([2]; 8° C., 60 days): 12.5 µg/mL | Stability of Cannabinoids in AB Red ([2]; 8° C., 90 days): 13.0 µg/mL | Stability of Cannabinoids in AB Red ([2]; 8° C., 120 days): 12.4 µg/mL | Stability of Cannabinoids in AB Red ([2]; 8° C., 150 days): 12.8 µg/mL | Stability of Cannabinoids in AB Red ([2]; 8° C., 180 days): 12.6 µg/mL | Stability of Cannabinoids in AB Red ([2]; 8° C., 210 days): 12.3 µg/mL | Stability of Cannabinoids in AB Red ([2]; 8° C., 240 days): 12.4 µg/mL | Stability of Cannabinoids in AB Red ([2]; 8° C., 270 days): 12.6 µg/mL | Stability of Cannabinoids in AB Red ([2]; 8° C., 300 days): 12.4 µg/mL | Stability of Cannabinoids in AB Red ([2]; 8° C., 330 days): 12.7 µg/mL | Stability of Cannabinoids in AB Red ([2]; 8° C., 390 days): 12.4 µg/mL | Stability of Cannabinoids in AB Red ([2]; 8° C., 420 days): 12.4 µg/mL | Stability of Cannabinoids in AB Red ([2]; 8° C., 450 days): 12.4 µg/mL | Stability of Cannabinoids in AB Red ([2]; 8° C., 480 days): 12.2 µg/mL | Stability of Cannabinoids in AB Red ([2]; 8° C., 510 days): 12.0 µg/mL | Stability of Cannabinoids in AB Red ([2]; 8° C., 540 days): 11.9 µg/mL | Stability of Cannabinoids in AB Red ([2]; 8° C., 570 days): 11.8 µg/mL | Stability of Cannabinoids in AB Red ([2]; 21-25° C., 0 days): 12.9 µg/mL | Stability of Cannabinoids in AB Red ([2]; 21-25° C., 1 days): 13.0 µg/mL | Stability of Cannabinoids in AB Red ([2]; 21-25° C., 2 days): 13.0 µg/mL | Stability of Cannabinoids in AB Red ([2]; 21-25° C., 3 days): 12.6 µg/mL | Stability of Cannabinoids in AB Red ([2]; 21-25° C., 5 days): 12.4 µg/mL | Stability of Cannabinoids in AB Red ([2]; 21-25° C., 8 days): 12.7 µg/mL | Stability of Cannabinoids in AB Red ([2]; 21-25° C., 9 days): 12.8 µg/mL | Stability of Cannabinoids in AB Red ([2]; 21-25° C., 10 days): 12.5 µg/mL | Stability of Cannabinoids in AB Red ([2]; 21-25° C., 11 days): 12.9 µg/mL | Stability of Cannabinoids in AB Red ([2]; 21-25° C., 12 days): 13.0 µg/mL | Stability of Cannabinoids in AB Red ([2]; 21-25° C., 15 days): 12.7 µg/mL | Stability of Cannabinoids in AB Red ([2]; 21-25° C., 16 days): 12.4 µg/mL | Stability of Cannabinoids in AB Red ([2]; 21-25° C., 17 days): 12.9 µg/mL | Stability of Cannabinoids in AB Red ([2]; 21-25° C., 18 days): 12.8 µg/mL | Stability of Cannabinoids in AB Red ([2]; 21-25° C., 19 days): 12.8 µg/mL | Stability of Cannabinoids in AB Red ([2]; 21-25° C., 22 days): 12.9 µg/mL | Stability of Cannabinoids in AB Red ([2]; 21-25° C., 23 days): 12.9 µg/mL | Stability of Cannabinoids in AB Red ([2]; 21-25° C., 24 days): 12.5 µg/mL | Stability of Cannabinoids in AB Red ([2]; 21-25° C., 25 days): 12.5 µg/mL | Stability of Cannabinoids in AB Red ([2]; 21-25° C., 26 days): 12.4 µg/mL | Stability of Cannabinoids in AB Red ([2]; 21-25° C., 29 days): 12.7 µg/mL | Stability of Cannabinoids in AB Red ([2]; 21-25° C., 30 days): 12.4 µg/mL | Stability of Cannabinoids in AB Red ([2]; 21-25° C., 60 days): 12.2 µg/mL | Stability of Cannabinoids in AB Red ([2]; 21-25° C., 90 days): 12.8 µg/mL | Stability of Cannabinoids in AB Red ([2]; 21-25° C., 120 days): 12.4 µg/mL | Stability of Cannabinoids in AB Red ([2]; 21-25° C., 150 days): 12.4 µg/mL | Stability of Cannabinoids in AB Red ([2]; 21-25° C., 180 days): 12.8 µg/mL | Stability of Cannabinoids in AB Red ([2]; 21-25° C., 210 days): 12.4 µg/mL | Stability of Cannabinoids in AB Red ([2]; 21-25° C., 240 days): 12.5 µg/mL | Stability of Cannabinoids in AB Red ([2]; 21-25° C., 270 days): 12.5 µg/mL | Stability of Cannabinoids in AB Red ([2]; 21-25° C., 300 days): 12.4 µg/mL | Stability of Cannabinoids in AB Red ([2]; 21-25° C., 330 days): 12.1 µg/mL | Stability of Cannabinoids in AB Red ([2]; 21-25° C., 390 days): 12.1 µg/mL | Stability of Cannabinoids in AB Red ([2]; 21-25° C., 420 days): 12.2 µg/mL | Stability of Cannabinoids in AB Red ([2]; 21-25° C., 450 days): 12.2 µg/mL | Stability of Cannabinoids in AB Red ([2]; 21-25° C., 480 days): 11.8 µg/mL | Stability of Cannabinoids in AB Red ([2]; 21-25° C., 510 days): 12.3 µg/mL | Stability of Cannabinoids in AB Red ([2]; 21-25° C., 540 days): 12.2 µg/mL | Stability of Cannabinoids in AB Red ([2]; 21-25° C., 570 days): 11.8 µg/mL | Chemical stability over the entire period (result in words) ([2]; stored at 8° C., 570 days): high degree of stability | Chemical stability over the entire period (result in words) ([2]; stored at 21-25° C., 570 days): high degree of stability
